# Measured values: patent EP2650284A1, “Heterocyclic derivatives as metabotropic glutamate receptor modulators” (Merz Pharma GmbH & Co. KGaA, priority 2012, dated 2013)
# Like-named read-outs stand apart in the source and are kept apart here.
# Key:
# [1] = target: T1, human metabotropic glutamate receptor mGluR5 (Homo sapiens, UniProt P41594); test: Cytosolic calcium studies with stably transfected cells (h5CHO), functional assay of mGluR5 receptors; format: cell-based; settings: for h left shift / IC50: h5CHO cells; for EC50: positive modulators, h5CHO cells preincubated with modulator, stimulated by an EC20 concentration of L-glutamate, read-out: hEC50; for IC50: Table A2, negative modulation, compounds added 5 minutes before L-quisqualic acid (~80% of the maximal signal), read-out: hIC50
# T1 construct: expressed in transfected cells; host or cells: CHO-K1 (h5CHO), IPTG-inducible
# T1 sequence (P41594 21-1212): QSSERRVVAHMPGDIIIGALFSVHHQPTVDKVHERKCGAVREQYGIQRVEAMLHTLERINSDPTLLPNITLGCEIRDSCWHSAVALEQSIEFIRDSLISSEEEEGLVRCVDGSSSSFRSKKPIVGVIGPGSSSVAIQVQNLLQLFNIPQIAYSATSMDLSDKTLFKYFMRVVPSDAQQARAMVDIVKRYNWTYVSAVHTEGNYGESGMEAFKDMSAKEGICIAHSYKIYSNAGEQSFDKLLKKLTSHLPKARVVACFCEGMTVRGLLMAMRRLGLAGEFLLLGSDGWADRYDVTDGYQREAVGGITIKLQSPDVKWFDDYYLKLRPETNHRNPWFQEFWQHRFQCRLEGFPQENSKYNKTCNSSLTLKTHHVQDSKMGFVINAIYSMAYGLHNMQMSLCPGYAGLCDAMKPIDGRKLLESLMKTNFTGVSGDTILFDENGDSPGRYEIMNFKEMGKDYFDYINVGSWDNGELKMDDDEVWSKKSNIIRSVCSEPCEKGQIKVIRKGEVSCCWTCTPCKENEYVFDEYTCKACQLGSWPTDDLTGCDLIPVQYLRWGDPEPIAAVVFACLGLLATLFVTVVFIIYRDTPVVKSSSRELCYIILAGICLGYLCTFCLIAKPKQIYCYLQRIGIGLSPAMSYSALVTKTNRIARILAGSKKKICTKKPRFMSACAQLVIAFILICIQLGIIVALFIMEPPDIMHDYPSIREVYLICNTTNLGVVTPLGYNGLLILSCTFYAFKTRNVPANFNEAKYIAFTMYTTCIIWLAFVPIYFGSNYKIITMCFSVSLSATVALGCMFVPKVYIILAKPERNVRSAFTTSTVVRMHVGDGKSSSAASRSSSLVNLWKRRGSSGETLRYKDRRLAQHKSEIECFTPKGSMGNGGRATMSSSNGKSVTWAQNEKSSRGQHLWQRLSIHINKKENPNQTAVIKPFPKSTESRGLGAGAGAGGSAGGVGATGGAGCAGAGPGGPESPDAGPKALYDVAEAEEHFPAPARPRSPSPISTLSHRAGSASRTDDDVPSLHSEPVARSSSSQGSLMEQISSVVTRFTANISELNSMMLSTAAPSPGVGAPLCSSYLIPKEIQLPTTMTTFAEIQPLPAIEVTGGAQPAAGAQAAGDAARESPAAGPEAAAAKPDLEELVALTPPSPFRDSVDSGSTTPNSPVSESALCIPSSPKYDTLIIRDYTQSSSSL
# Method: Chinese hamster ovary cells (CHO-K1 cells), stably transfected for inducible expression of a human metabotropic glutamate receptor mGluR5 to form a cell line called h5CHO, are seeded into black clear bottom 96 well plates at a density of 35.000 cells per well. The standard growth medium used (Dulbecco's modified Eagle Medium, DMEM plus L-proline) contains the appropriate inducer isopropyl-β-D-thiogalactopyranosid (IPTG) to achieve optimal receptor expression. One day after seeding the growth medium is exchanged for reconstituted Ca-Kit (Molecular Devices, USA) and incubated for one hour. Ca-Kit is reconstituted in an assay buffer containing 20 mM HEPES pH 7.4, glutamic-pyruvate transaminase, pyridoxal phosphate and sodium pyruvate in Hank's balanced salt solution (HBBS). Agonistic compounds to the receptor elicit increases in cytosolic calcium which can be measured as increases in fluorescence signals by use of a fluorescence imaging plate reader (Molecular Devices). To analyze their potency to negatively modulate the Ca-response test compounds, dissolved in a final DMSO concentration of 0.5%, are added on-line 5 minutes before the agonist to the receptor (L-quisqualic acid at a concentration giving ~80% of the maximal signal). EC50 values for positive allosteric modulators were determined by stimulating the cells which have been preincubated the modulators by an EC20 concentration of L-glutamate.
# (§1) The fluorescence signal increase after addition of agonist reflects the increase of cytosolic calcium. Inconsistencies in the amount of cells per well are normalised by using the spatial uniformity correction of the FLIPR operating software Screenworks. The mean of replicated temporal data (n=3-5) is calculated and used for graphical representation. For the evaluation of the pharmacology, the calcium changes in response to different concentrations of agonist or antagonist are determined using a maximum minus minimum (MaxMin) calculation.
# (§2) All responses (RFU-values) are determined as percentage of control (= maximum response). EC50 and IC50 are calculated according the logistic equation using XLFit (IDBS, UK) or Prism 4.0 (GraphPad Software, USA). The compounds of the present invention have a potency (EC50 or IC50) within a range of about 0.5 nM to about 100 µM. The left shifts for positive or slient allosteric modulators (PAMs or SAMs, respectively) are determined by comparison of EC50 values from agonist dose response curves run in the presence of 10 µM modulator or vehicle (Vanejevs et al., J. Med. Chem., 2008, 51, 634-647).
# [2] = target: T2, mGluR5 receptors (Rattus norvegicus, UniProt P31424); test: Cytosolic calcium studies with astrocytes (FLIPR), functional assay of mGluR5 receptors; format: cell-based; settings: for IC50: Table A2, pre-incubated 10 minutes before L-quisqualate (100 nM), read-out: rIC50
# T2 construct: Primary astrocyte cultures are prepared from cortices of newborn rats; endogenous in cells; host or cells: primary cortical astrocytes from Sprague-Dawley rat pups (2-4 d old)
# T2 sequence (P31424 21-1203): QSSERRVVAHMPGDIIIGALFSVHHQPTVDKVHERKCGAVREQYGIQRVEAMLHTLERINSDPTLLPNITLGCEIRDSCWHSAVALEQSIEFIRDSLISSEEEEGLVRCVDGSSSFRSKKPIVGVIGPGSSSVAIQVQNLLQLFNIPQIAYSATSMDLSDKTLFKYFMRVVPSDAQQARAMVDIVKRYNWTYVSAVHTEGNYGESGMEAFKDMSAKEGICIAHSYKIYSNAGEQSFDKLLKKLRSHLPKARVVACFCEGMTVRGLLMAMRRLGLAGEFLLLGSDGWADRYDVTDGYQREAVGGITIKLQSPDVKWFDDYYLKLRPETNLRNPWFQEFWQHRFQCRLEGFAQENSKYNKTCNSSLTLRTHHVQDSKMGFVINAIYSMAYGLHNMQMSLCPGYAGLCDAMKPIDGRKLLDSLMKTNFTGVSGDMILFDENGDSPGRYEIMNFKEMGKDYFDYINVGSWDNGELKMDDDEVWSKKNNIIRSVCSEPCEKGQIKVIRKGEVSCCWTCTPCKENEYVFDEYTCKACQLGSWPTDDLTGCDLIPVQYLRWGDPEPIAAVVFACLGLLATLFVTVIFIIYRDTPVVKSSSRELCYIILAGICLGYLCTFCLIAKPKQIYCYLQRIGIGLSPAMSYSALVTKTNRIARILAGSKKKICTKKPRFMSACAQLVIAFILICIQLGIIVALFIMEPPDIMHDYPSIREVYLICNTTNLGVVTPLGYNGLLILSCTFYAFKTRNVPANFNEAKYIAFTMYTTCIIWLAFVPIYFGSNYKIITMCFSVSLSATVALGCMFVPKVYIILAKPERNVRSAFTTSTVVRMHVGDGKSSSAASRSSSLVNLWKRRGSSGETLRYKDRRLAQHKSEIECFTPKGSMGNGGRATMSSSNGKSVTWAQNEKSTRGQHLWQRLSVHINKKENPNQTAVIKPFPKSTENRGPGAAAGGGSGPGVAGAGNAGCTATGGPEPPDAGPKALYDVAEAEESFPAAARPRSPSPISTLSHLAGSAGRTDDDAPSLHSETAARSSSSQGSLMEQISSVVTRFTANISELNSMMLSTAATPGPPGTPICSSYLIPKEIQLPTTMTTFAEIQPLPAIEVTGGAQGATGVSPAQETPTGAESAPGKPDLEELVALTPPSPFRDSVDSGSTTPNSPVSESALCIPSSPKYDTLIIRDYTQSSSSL
# Method: Primary astrocyte cultures are prepared from cortices of newborn rats as described by Booher and Sensenbrenner (1972, Neurobiology 2(3):97-105). Briefly, Sprague-Dawley rat pups (2 - 4 d old) are decapitated and neocortices are dissected, disintegrated with a nylon filter (pore size 80 µm) and carefully triturated. The cell suspension is plated on poly-D-lysine pre-coated flasks (Costar, Netherlands) and cultivated in Dulbecco's Modified Eagle's Medium (DMEM, Invitrogen, Germany) supplemented with 10% foetal calf serum (FCS, Sigma, Germany), 4 mM glutamine and 50 µg/ml gentamycin (both Biochrom, Germany) at 37°C in a humidified atmosphere of 5% CO2/ 95% air for 7 days with exchanging the medium at day 2 and 6.
# After 7 days in vitro (DIV), cells are shaken overnight at 250 rpm to remove oligodendrocytes and microglia. The next day, astrocytes are rinsed twice with CMF-PBS (calcium- and magnesium-free phosphate buffered saline, Biochrom, Germany), trypsinized and subplated on poly-D-lysine pre-coated 96-well plates (Greiner, Germany) at a density of 40,000 cells/well. 24 h after establishing the secondary culture the astrocytes are rinsed with PBS^++ (phosphate buffered saline, Biochrom, Germany) and fed with astrocyte-defined medium (ADM) consisting of DMEM containing 1x G5-supplement (Invitrogen, Germany), 0.5 µg/ml heparan sulfate, and 1.5 µg/ml fibronectin (both Sigma, Germany) (Miller et al., (1993) Brain Res. 618(1):175-8). 3 days later the medium is exchanged and the cells incubated for another 2-3 days, so that at the time of experiments astrocytes are 14-15 DIV.
# The increase of cytosolic calcium after stimulation with the mGluR5 agonist L-quisqualate is measured using a fluorometric imaging plate reader (FLIPR) and the Ca-Kit (both Molecular Devices). Prior to addition of agonist or antagonist the medium is aspirated and cells are loaded for 2 h at RT with 150 µl of loading buffer consisting of Ca-sensitive dye reconstituted in sodium chloride (123 mM), potassium chloride (5.4 mM), magnesium chloride (0.8 mM), calcium chloride (1.8 mM), D-glucose (15 mM), and HEPES (20 mM), pH 7.3. Subsequently, plates are transferred to FLIPR to detect calcium increase with the addition of L-quisqualate (100 nM) measured as relative fluorescence units (RFU). If antagonists are tested, these compounds are pre-incubated for 10 minutes at RT before addition of the respective agonist.
# For positive modulators, concentration-response curves for quisqualate are performed in the presence and absence of 10 µM modulator to determine the extent of potentiation / agonist potency increase. Thereafter, concentration-response curves for the positive modulator are performed in the presence of a fixed concentration of quisqualate showing the biggest window for potentiation (normally 10-30 nM).
# as §1, §2
# [3] = Table A1, left shift of agonist EC50, dose response curves in the presence of 10 µM modulator or vehicle
# [4] = Table A1, left shift of quisqualate EC50 in the presence and absence of 10 µM modulator
# [5] = Table A1, positive modulators, fixed concentration of quisqualate (normally 10-30 nM), read-out: rEC50
# [6] = Table A3 (SAMs / very weak PAMs), agonist EC50 shift with 10 µM modulator or vehicle
# [7] = Table A3 (SAMs / very weak PAMs), quisqualate EC50 shift with 10 µM modulator
# [8] = Table A3, given in brackets where Ki is n.d., read-out: r EC50
SMILES,"h left shift [1, 3]","r left shift [2, 4]","EC50 [2, 5] [nM]","h left shift [1, 6]","r left shift [2, 7]","EC50 [2, 8] [nM]",EC50 ([1]; Table A1) [nM],IC50 [1] [nM],IC50 [2] [nM]
"O=C1OC2(CCCc3ncc(C#Cc4ccccc4)cc32)CN1C1CC1 (racemic) [Example 74, (rac)-3-Cyclopropyl-3'-(phenylethynyl)-7',8'-dihydro-6'H-spiro[oxazolidine-5,5'-quinolin]-2-one]",1.6-fold,1.5-fold,10.1,,,,,,
"O=C1OC2(CCCc3ncc(C#Cc4cccc(F)c4)cc32)CN1C1CC1 (racemic) [Example 76, (rac)-3-Cyclopropyl-3'-((3-fluorophenyl)ethynyl)-7',8'-dihydro-6'H-spiro[oxazolidine-5,5'-quinolin]-2-one]",,,,1.6-fold,1.4-fold,50.5,,,
"COC(=O)N1CC2Cc3cc(C#Cc4ccccc4)cnc3C2C1 (racemic) [Example 79, (rac)-Methyl 3-(phenylethynyl)-5a,6,8,8a-tetrahydropyrrolo[3',4':4,5]cyclopenta[1,2-b]pyridine-7(5H)-carboxylate]",2.6-fold,4.1-fold,167,,,,64.7,,
"COC(=O)N1CC[C@H]2CCc3cc(C#Cc4ccccc4)cnc3[C@H]21 (racemic) [Example 80, (rac)-cis-Methyl 7-(phenylethynyl)-2,3,3a,4,5,9b-hexahydro-1H-pyrrolo[3,2-h]quinoline-1-carboxylate]",,,,1.5-fold,1.8-fold,35.5,,,
"CCCN1CC2(CCCc3ncc(C#Cc4ccccc4)cc32)OC1=O (racemic) [Example 82, (rac)-3'-(Phenylethynyl)-3-propyl-7',8'-dihydro-6'H-spiro[oxazolidine-5,5'-quinolin]-2-one]",1.9-fold,1.6-fold,233,,,,727,,
"CCCN1CCO[C@@H]2c3cc(C#Cc4ccccc4)cnc3CC[C@@H]21 (single isomer, unassigned) [Example 16, cis-9-(Phenylethynyl)-4-propyl-3,4,4a,5,6,10b-hexahydro-2H-[1,4]oxazino[2,3-f]quinoline]",3.8-fold,6.0-fold,453,,,,47,,
"Cn1ncc2c1-c1cc(C#Cc3ccccc3)cnc1CC2 [Example 28, 1-Methyl-8-(phenylethynyl)-4,5-dihydro-1H-pyrazolo[3,4-f]quinoline]",2.4-fold,2.2-fold,,,,,19.2,,
"COC(=O)N1CC2CCc3ncc(C#Cc4ccccc4)cc3C2C1 (stereo not shown) [Example 30, Methyl 8-(phenylethynyl)-3,3a,4,5-tetrahydro-1H-pyrrolo[3,4-f]quinoline-2(9bH)-carboxylate]",2.5-fold,3.0-fold,256,,,,345,,
"COC(=O)N1CC2CCc3ncc(C#Cc4cccc(F)c4)cc3C2C1 (stereo not shown) [Example 31, Methyl 8-((3-fluorophenyl)ethynyl)-3,3a,4,5-tetrahydro-1H-pyrrolo[3,4-f]quinoline-2(9bH)-carboxylate]",2.6-fold,1.5-fold,261,,,,333,,
"CC(C)(C)C(=O)N1CCc2ncc(C#Cc3ccccc3)cc2C1 [Example 34, 2,2-Dimethyl-1-(3-(phenylethynyl)-7,8-dihydro-1,6-naphthyridin-6(5H)-yl)propan-1-one]",2.3-fold,2.8-fold,67.9,,,,171,,
"CC1(C(=O)N2CCc3ncc(C#Cc4ccccc4)cc3C2)COC1 [Example 36, (3-Methyloxetan-3-yl)(3-(phenylethynyl)-7,8-dihydro-1,6-naphthyridin-6(5H)-yl)methanone]",2.4-fold,2.7-fold,4040,,,,917,,
"O=S(=O)(C1CC1)N1CCc2ncc(C#Cc3ccccc3)cc2C1 [Example 38, 6-(Cyclopropylsulfonyl)-3-(phenylethynyl)-5,6,7,8-tetrahydro-1,6-naphthyridine]",1.7-fold,2.5-fold,481,,,,,,
"CC(C)COC(=O)N1CCc2ncc(C#Cc3ccccc3)cc2C1 [Example 41, Isobutyl 3-(phenylethynyl)-7,8-dihydro-1,6-naphthyridine-6(5H)-carboxylate]",2.2-fold,1.2-fold,4.36,,,,146,,
"CC(C)(C)OC(=O)N1CCc2ncc(C#Cc3ccccc3)cc2C1 [Example 42, tert-Butyl 3-(phenylethynyl)-7,8-dihydro-1,6-naphthyridine-6(5H)-carboxylate]",3.1-fold,1.9-fold,131,,,,281,,
"O=C(Oc1ccccc1)N1CCc2ncc(C#Cc3ccccc3)cc2C1 [Example 43, Phenyl 3-(phenylethynyl)-7,8-dihydro-1,6-naphthyridine-6(5H)-carboxylate]",2.4-fold,,38,,,,381,,
"CN(C)C(=O)N1CCc2ncc(C#Cc3cccc(F)c3)cc2C1 [Example 45, 3-((3-Fluorophenyl)ethynyl)-N,N-dimethyl-7,8-dihydro-1,6-naphthyridine-6(5H)-carboxamide]",,,,,,,,114,55.9
"CN(C)C(=O)N1CCc2ncc(C#Cc3cccc(C#N)c3)cc2C1 [Example 46, 3-((3-Cyanophenyl)ethynyl)-N,N-dimethyl-7,8-dihydro-1,6-naphthyridine-6(5H)-carboxamide]",,,,,,,,50.8,20.8
"O=C(N1CCc2ncc(C#Cc3ccccc3)cc2C1)N(CC(F)(F)F)CC(F)(F)F [Example 49, 3-(Phenylethynyl)-N,N-bis(2,2,2-trifluoroethyl)-7,8-dihydro-1,6-naphthyridine-6(5H)-carboxamide]",1.7-fold,2.3-fold,11.8,,,,,,
